Experimental data from the supplement of paper PMC10307832.

Assays:
Assay in all cases: relative viability (nuclei count vs DMSO), 5 days (fraction); higher = more cells survive
AZD8055 = compound: COc1ccc(-c2ccc3c(N4CCOC[C@@H]4C)nc(N4CCOC[C@@H]4C)nc3n2)cc1CO [AZD8055]
In short: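 Hoechst staining, done together with fixation and permeabilisation, marked nuclei for 4× imaging and MetaXpress counting. This followed 5 days without medium change after lung cancer cell lines, kept overnight at 37 °C in 1536-well plates, were pinned with five library-drug doses (not always all listed) spaced by √10 on vehicle-anchored plates. Viability is the ratio of treated-well to vehicle-well nuclei, expressed as a median across plates. Plates passed only at control CV below 25% with at least one doubling.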

AZD8055 + Palbociclib = compound: COc1ccc(-c2ccc3c(N4CCOC[C@@H]4C)nc(N4CCOC[C@@H]4C)nc3n2)cc1CO [AZD8055] + CC(=O)c1c(C)c2cnc(Nc3ccc(N4CCNCC4)cn3)nc2n(C2CCCC2)c1=O [Palbociclib] (partner 0.5 µM)
In short: (§1)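 Relative viability was taken as the ratio of nuclei in treated wells to nuclei in vehicle wells. Lung cancer cell lines in 1536-well plates received compounds by pin tool one day after seeding, either one drug alone or a fixed anchor-drug dose plus five library-drug doses (not always all listed) in √10 steps. Nuclei were counted on 4× images after 5 days of treatment, and values are medians of duplicate plates.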

AZD8055 + Foretinib = compound: COc1ccc(-c2ccc3c(N4CCOC[C@@H]4C)nc(N4CCOC[C@@H]4C)nc3n2)cc1CO [AZD8055] + COc1cc2c(Oc3ccc(NC(=O)C4(C(=O)Nc5ccc(F)cc5)CC4)cc3F)ccnc2cc1OCCCN1CCOCC1 [Foretinib] (partner 0.25 µM)
In short: as §1

AZD8055 + OSI-027 = compound: COc1ccc(-c2ccc3c(N4CCOC[C@@H]4C)nc(N4CCOC[C@@H]4C)nc3n2)cc1CO [AZD8055] + COc1cccc2cc(-c3nc([C@H]4CC[C@H](C(=O)O)CC4)n4ncnc(N)c34)[nH]c12 [OSI-027] (partner 0.5 µM)
In short: as §1

Cell Line | relative viability (AZD8055; 0.01 µM) | relative viability (AZD8055; 0.03162 µM) | relative viability (AZD8055; 0.1 µM) | relative viability (AZD8055; 0.3162 µM) | relative viability (AZD8055; 1 µM) | relative viability (AZD8055 + Palbociclib; first compound 0.01 µM) | relative viability (AZD8055 + Palbociclib; first compound 0.03162 µM) | relative viability (AZD8055 + Palbociclib; first compound 0.1 µM) | relative viability (AZD8055 + Palbociclib; first compound 0.3162 µM) | relative viability (AZD8055 + Palbociclib; first compound 1 µM) | relative viability (AZD8055 + Foretinib; first compound 0.01 µM) | relative viability (AZD8055 + Foretinib; first compound 0.03162 µM) | relative viability (AZD8055 + Foretinib; first compound 0.1 µM) | relative viability (AZD8055 + Foretinib; first compound 0.3162 µM) | relative viability (AZD8055 + Foretinib; first compound 1 µM) | relative viability (AZD8055 + OSI-027; first compound 0.01 µM) | relative viability (AZD8055 + OSI-027; first compound 0.03162 µM) | relative viability (AZD8055 + OSI-027; first compound 0.1 µM) | relative viability (AZD8055 + OSI-027; first compound 0.3162 µM) | relative viability (AZD8055 + OSI-027; first compound 1 µM)
NCI-H23 | 1.09 | 0.804 | 0.662 | 0.371 | 0.373 | 0.439 | 0.367 | 0.295 | 0.193 | 0.187 | 1.02 | 0.841 | 0.584 | 0.451 | 0.347 | 0.673 | 0.555 | 0.626 | 0.426 | 0.323
NCI-H322M | 0.933 | 0.968 | 0.741 | 0.64 | 0.601 | 0.457 | 0.492 | 0.383 | 0.468 | 0.41 | 0.933 | 0.802 | 0.781 | 0.573 | 0.6 | 0.56 | 0.602 | 0.582 | 0.476 | 0.431
NCI-H358 | 1.03 | 1.15 | 0.855 | 0.323 | 0.263 | 0.143 | 0.137 | 0.135 | 0.115 | 0.101 | 1.03 | 0.887 | 0.585 | 0.264 | 0.181 | 0.871 | 0.708 | 0.576 | 0.29 | 0.164
NCI-H441 | 1.06 | 0.929 | 0.695 | 0.427 | 0.387 | 0.178 | 0.185 | 0.179 | 0.144 | 0.14 | 0.925 | 0.94 | 0.68 | 0.349 | 0.37 | 0.676 | 0.647 | 0.476 | 0.408 | 0.339
NCI-H460 | 1.13 | 0.995 | 0.798 | 0.416 | 0.264 | 0.154 | 0.108 | 0.0839 | 0.0295 | 0.0277 | 1.12 | 1.09 | 0.812 | 0.376 | 0.206 | 0.85 | 0.47 | 0.506 | 0.141 | 0.124
NCI-H520 | 0.904 | 0.441 | 0.373 | 0.19 | 0.178 | 0.167 | 0.15 | 0.156 | 0.141 | 0.161 | 0.635 | 0.344 | 0.35 | 0.173 | 0.172 | 0.236 | 0.254 | 0.188 | 0.184 | 0.16
NCI-H647 | 0.981 | 0.717 | 0.51 | 0.332 | 0.204 | 0.348 | 0.219 | 0.245 | 0.102 | 0.0993 | 1.18 | 0.941 | 0.61 | 0.405 | 0.229 | 0.514 | 0.624 | 0.568 | 0.315 | 0.193
NCI-H650 | 0.984 | 0.809 | 0.738 | 0.427 | 0.303 | 0.371 | 0.307 | 0.273 | 0.196 | 0.165 | 1.12 | 0.995 | 0.773 | 0.541 | 0.368 | 0.528 | 0.492 | 0.602 | 0.368 | 0.344
NCI-H661 | 1.03 | 0.992 | 0.842 | 0.521 | 0.537 | 0.37 | 0.368 | 0.303 | 0.291 | 0.362 | 1.06 | 0.99 | 0.795 | 0.5 | 0.425 | 0.782 | 0.668 | 0.575 | 0.41 | 0.341
NCI-H727 | 1.17 | 0.953 | 0.695 | 0.544 | 0.412 | 0.621 | 0.635 | 0.572 | 0.573 | 0.51 | 0.713 | 0.89 | 0.717 | 0.307 | 0.394 | 0.674 | 0.604 | 0.49 | 0.351 | 0.409
NCI-H838 | 1.05 | 0.676 | 0.442 | 0.322 | 0.339 | 0.214 | 0.156 | 0.163 | 0.16 | 0.17 | 1 | 0.913 | 0.597 | 0.398 | 0.347 | 0.377 | 0.404 | 0.383 | 0.262 | 0.31
NCI-H1355 | 0.889 | 0.865 | 0.578 | 0.303 | 0.261 | 0.323 | 0.284 | 0.219 | 0.215 | 0.218 | 0.865 | 0.77 | 0.712 | 0.332 | 0.278 | 0.393 | 0.414 | 0.372 | 0.314 | 0.273
NCI-H1395 | 0.869 | 0.648 | 0.739 | 0.488 | 0.427 | 0.604 | 0.526 | 0.547 | 0.44 | 0.45 | 0.982 | 0.774 | 0.835 | 0.505 | 0.528 | 0.657 | 0.618 | 0.535 | 0.443 | 0.422
NCI-H1437 | 1.05 | 1.02 | 0.895 | 0.448 | 0.318 | 0.358 | 0.434 | 0.338 | 0.221 | 0.203 | 1.38 | 1.37 | 1.24 | 0.869 | 0.482 | 0.973 | 0.88 | 0.753 | 0.354 | 0.389
NCI-H1650 | 0.923 | 1 | 0.802 | 0.498 | 0.419 | 0.317 | 0.323 | 0.254 | 0.18 | 0.205 | 0.998 | 1.02 | 0.886 | 0.778 | 0.449 | 0.678 | 0.776 | 0.484 | 0.435 | 0.39
